This passage reports inhibition results from PMC9516332 (Frontiers in Oncology, 2022).

Common to all, as to test: Kinase panel profiling at 1 µmol/L (MSA or IMAP), percentage inhibition
Common to all, as to assay type: biochemical

Test [1] addresses T1, panel of 255 wild-type kinases (Homo sapiens, UniProt O15111).
T1 sequence (O15111 1-745): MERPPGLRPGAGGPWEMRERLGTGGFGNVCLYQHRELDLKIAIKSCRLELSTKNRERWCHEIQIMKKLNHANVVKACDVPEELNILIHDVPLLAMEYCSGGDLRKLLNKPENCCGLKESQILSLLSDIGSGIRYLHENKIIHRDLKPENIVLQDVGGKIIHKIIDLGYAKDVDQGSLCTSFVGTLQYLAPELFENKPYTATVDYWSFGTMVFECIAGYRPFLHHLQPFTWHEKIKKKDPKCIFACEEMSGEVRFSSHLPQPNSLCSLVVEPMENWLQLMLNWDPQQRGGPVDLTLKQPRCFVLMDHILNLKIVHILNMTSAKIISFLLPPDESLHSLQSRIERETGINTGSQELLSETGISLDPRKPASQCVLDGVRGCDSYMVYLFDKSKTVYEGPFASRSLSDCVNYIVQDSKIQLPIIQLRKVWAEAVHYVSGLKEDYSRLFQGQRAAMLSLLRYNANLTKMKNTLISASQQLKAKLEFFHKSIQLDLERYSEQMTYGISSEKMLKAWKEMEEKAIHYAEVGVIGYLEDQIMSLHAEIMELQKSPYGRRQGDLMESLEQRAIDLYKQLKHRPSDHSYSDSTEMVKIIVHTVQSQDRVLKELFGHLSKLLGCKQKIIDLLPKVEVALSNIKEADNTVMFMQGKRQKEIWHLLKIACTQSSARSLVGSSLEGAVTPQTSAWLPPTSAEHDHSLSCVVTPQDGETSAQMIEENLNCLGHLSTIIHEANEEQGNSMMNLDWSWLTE
The settings on record: read-out: %-inhibition at 1 µmol/L, IKKα.

Test [2] deals with panel of 255 wild-type kinases (Homo sapiens, UniProt O75116). The settings on record: read-out: %-inhibition at 1 µmol/L, ROCK2.
In test [3] the target is panel of 255 wild-type kinases (Homo sapiens, UniProt P06239). To be noted: read-out: %-inhibition at 1 µmol/L, LCK.
For test [4], the target named is panel of 255 wild-type kinases (Homo sapiens, UniProt P09619). To be noted: read-out: %-inhibition at 1 µmol/L, PDGFRβ.
The target of test [5] is T2, panel of 255 wild-type kinases (Homo sapiens, UniProt P15735).
T2 sequence (P15735 1-406): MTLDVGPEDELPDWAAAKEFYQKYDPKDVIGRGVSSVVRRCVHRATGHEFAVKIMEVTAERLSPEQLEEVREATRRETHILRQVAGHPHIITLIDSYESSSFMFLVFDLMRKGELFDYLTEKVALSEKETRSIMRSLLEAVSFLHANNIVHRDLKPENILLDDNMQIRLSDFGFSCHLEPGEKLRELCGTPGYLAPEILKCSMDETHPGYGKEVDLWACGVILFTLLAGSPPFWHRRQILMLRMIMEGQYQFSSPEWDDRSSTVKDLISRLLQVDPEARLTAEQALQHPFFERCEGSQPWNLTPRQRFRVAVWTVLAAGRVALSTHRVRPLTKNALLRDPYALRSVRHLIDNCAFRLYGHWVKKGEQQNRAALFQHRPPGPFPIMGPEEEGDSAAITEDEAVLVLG
The settings on record: read-out: %-inhibition at 1 µmol/L, PHKG2.

Test [6] addresses panel of 255 wild-type kinases (Homo sapiens, UniProt P50750). The settings on record: read-out: %-inhibition CDK9/CycT1.
Test [7] deals with panel of 255 wild-type kinases (Homo sapiens, UniProt P51957). The settings on record: read-out: %-inhibition, NEK4.
Test [8] concerns the target panel of 255 wild-type kinases (Homo sapiens, UniProt Q07912). To be noted: read-out: %-inhibition ACK.
In test [9] the target is T3, panel of 255 wild-type kinases (Homo sapiens, UniProt Q13043).
T3 sequence (Q13043 1-487): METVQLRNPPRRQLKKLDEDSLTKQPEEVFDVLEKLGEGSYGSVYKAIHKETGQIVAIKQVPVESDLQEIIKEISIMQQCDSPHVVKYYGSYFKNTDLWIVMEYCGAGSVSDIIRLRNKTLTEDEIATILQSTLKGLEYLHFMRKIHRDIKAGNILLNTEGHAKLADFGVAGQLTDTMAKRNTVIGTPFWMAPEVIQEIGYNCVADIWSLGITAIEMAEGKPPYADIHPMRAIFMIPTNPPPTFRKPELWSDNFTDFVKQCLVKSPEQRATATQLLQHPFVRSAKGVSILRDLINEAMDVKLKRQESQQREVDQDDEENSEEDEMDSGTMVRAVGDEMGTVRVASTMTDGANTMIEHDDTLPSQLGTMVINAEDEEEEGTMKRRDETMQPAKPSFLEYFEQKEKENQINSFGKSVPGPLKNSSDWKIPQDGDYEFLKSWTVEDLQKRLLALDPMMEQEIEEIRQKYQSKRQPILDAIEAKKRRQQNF
The settings on record: read-out: %-inhibition, MST1.

In test [10] the target is panel of 255 wild-type kinases (Homo sapiens, UniProt Q13557). To be noted: read-out: %-inhibition CaMK2δ.
The target in test [11] is panel of 255 wild-type kinases (Homo sapiens, UniProt Q14012). The settings on record: read-out: %-inhibition CaMK1α.
Test [12] concerns the target panel of 255 wild-type kinases (Homo sapiens, UniProt Q16816). To be noted: read-out: %-inhibition at 1 µmol/L, PHKG1.
In test [13] the target is panel of 255 wild-type kinases (Homo sapiens, UniProt Q9P286). The settings on record: read-out: %-inhibition, PAK5.
The mark [14] stands for this setting: kinase IKKα, 1 µmol/L single concentration.
The mark [15] stands for this setting: kinase ROCK2, 1 µmol/L single concentration.
Setting [16] is: kinase LCK, 1 µmol/L single concentration.
Setting [17] is: kinase PDGFRβ, 1 µmol/L single concentration.
[18] abbreviates: kinase PHKG2, 1 µmol/L single concentration.
[19] abbreviates: CDK9/CycT1 kinase assay, 1 µmol/L single concentration.
Setting [20] is: NEK4, 1 µmol/L single concentration.
The mark [21] stands for this setting: ACK kinase assay, 1 µmol/L single concentration.
Where [22] appears, read: MST1, 1 µmol/L single concentration.
[23] abbreviates: CaMK2δ kinase assay, 1 µmol/L single concentration.
[24] abbreviates: CaMK1α kinase assay, 1 µmol/L single concentration.
Setting [25] is: kinase PHKG1, 1 µmol/L single concentration.
[26] abbreviates: PAK5, 1 µmol/L single concentration.

Molecules are shown by their SMILES. Read-outs that look alike come from different tables or passages of the source.

Turning to `Cc1nc(NC(=O)N2CCC[C@H]2C(N)=O)sc1-c1ccnc(C(C)(C)C(F)(F)F)c1` [alpelisib], the inhibition at 1 µM is 6% in test [1] (setting [14]); 0.528% in test [2] (setting [15]); 5% in test [3] (setting [16]); 0.0362% in [4] (setting [17]); 1.64% in test [5] (setting [18]); -0.929% in [6] (setting [19]). The inhibition at 1 µM is -3% in [7] (setting [20]); 5.5% in [8] (setting [21]); 5% in test [9] (setting [22]); 0.814% in test [10] (setting [23]); -10% in test [11] (setting [24]); -1.22% in test [12] (setting [25]). Further, in [13] (setting [26]), the inhibition at 1 µM was -2.58%.
Turning to `Cn1cc(-c2cc3c(N4CCN(c5ncc([C@@](C)(N)c6ccc(F)cc6)cn5)CC4)ncnn3c2)cn1` [avapritinib], the inhibition at 1 µM in [1] (setting [14]) is 2.41%; in test [2] (setting [15]) it was 11%; in test [3] (setting [16]) it was 92%; in [4] (setting [17]), 95%; in test [5] (setting [18]), 5.4%; in [6] (setting [19]) it was 49%. The inhibition at 1 µM is 12% in [7] (setting [20]); 73% in [8] (setting [21]); 5.32% in test [9] (setting [22]); -2.56% in test [10] (setting [23]); -9% in test [11] (setting [24]); -0.381% in [12] (setting [25]). The inhibition at 1 µM in [13] (setting [26]) came to 4.51%.
For `Cn1cnc2c(F)c(Nc3ccc(Br)cc3F)c(C(=O)NOCCO)cc21` [binimetinib], the inhibition at 1 µM is 9% in test [1] (setting [14]); -4% in [2] (setting [15]); -0.655% in test [3] (setting [16]); -2.23% in test [4] (setting [17]); -3.26% in test [5] (setting [18]); -1.47% in test [6] (setting [19]). Also, the inhibition at 1 µM in test [7] (setting [20]) was -1.67%; in test [8] (setting [21]), -4%; in [9] (setting [22]), -6.46%; in [10] (setting [23]) it was -4%; in test [11] (setting [24]), -5%; in test [12] (setting [25]), 1.77%. In addition, the inhibition at 1 µM in [13] (setting [26]) was found to be 5%.
Consider `CNC(=O)c1ccc(-c2cnc3ncc(Cc4ccc5ncccc5c4)n3n2)cc1F` [capmatinib], for which the inhibition at 1 µM in test [1] is 1.1%; in test [2], -0.288%; in test [3] it was 4.23%; in test [4], 20%; in test [5], 0.266%; in test [6], -0.278%. In addition, the inhibition at 1 µM is 2% in [7]; 1% in [8]; -2% in test [9]; -1.07% in test [10]; -9% in test [11]; -2.39% in test [12]. Besides, in [13], the inhibition at 1 µM was 0.765%.
Regarding `COc1cc2ncnc(Nc3ccc(F)c(Cl)c3)c2cc1NC(=O)/C=C/CN1CCCCC1` [dacomitinib], the inhibition at 1 µM in [1] (setting [14]) is 10%; in test [2] (setting [15]), -4.35%; in test [3] (setting [16]), 93%; in test [4] (setting [17]) it was 68%; in test [5] (setting [18]), 11%; in test [6] (setting [19]), 3.6%. The inhibition at 1 µM in test [7] (setting [20]) was -2.15%; in test [8] (setting [21]) it was 32%; in test [9] (setting [22]), 2.73%; in test [10] (setting [23]) it was 9%; in test [11] (setting [24]) it was -7%; in [12] (setting [25]), 25%. For the same compound, in test [13] (setting [26]), the inhibition at 1 µM was found to be 4.29%.
Consider `C[C@H](Nc1ncnc2nc[nH]c12)c1cc2cccc(Cl)c2c(=O)n1-c1ccccc1` [duvelisib], for which the inhibition at 1 µM in test [1] (setting [14]) is 8%; in test [2] (setting [15]) it was -0.18%; in test [3] (setting [16]) it was 7%; in [4] (setting [17]), 2%; in test [5] (setting [18]), 0.785%; in test [6] (setting [19]), -0.441%. For the same compound, the inhibition at 1 µM was -2.34% in test [7] (setting [20]); 2.28% in test [8] (setting [21]); 10% in [9] (setting [22]); 4% in [10] (setting [23]); -5.33% in [11] (setting [24]); -1.8% in test [12] (setting [25]). For the same compound, in test [13] (setting [26]), the inhibition at 1 µM was -1%.
Turning to `CN1CCN(c2ccc(C(=O)Nc3n[nH]c4ccc(Cc5cc(F)cc(F)c5)cc34)c(NC3CCOCC3)c2)CC1` [entrectinib], the inhibition at 1 µM in [1] (setting [14]) turned out to be 8%; in test [2] (setting [15]) it was 7%; in [5] (setting [18]), 41%; in test [6] (setting [19]), 1.79%; in [7] (setting [20]), 1.25%; in test [9] (setting [22]), 92%. In addition, the inhibition at 1 µM in test [10] (setting [23]) is 28%; in test [11] (setting [24]), -5.68%; in test [12] (setting [25]), 54%; in test [13] (setting [26]), 25%.
Consider `C[C@H]1Oc2cc(cnc2N)-c2c(nn(C)c2C#N)CN(C)C(=O)c2ccc(F)cc21` [lorlatinib], for which the inhibition at 1 µM in [1] (setting [14]) is 12%; in test [2] (setting [15]) it was 3.28%; in test [3] (setting [16]), 24%; in [4] (setting [17]), 2.32%; in test [5] (setting [18]) it was 92%; in test [6] (setting [19]), -2.48%. In addition, the inhibition at 1 µM was -0.571% in [7] (setting [20]); 28% in test [9] (setting [22]); 36% in test [10] (setting [23]); 1.49% in [11] (setting [24]); 65% in test [12] (setting [25]); 11% in test [13] (setting [26]).
